The source made the active and inactive calls. The rule behind the calls is not given here.
Key:
Escherichia coli [1] = assay: Antibacterial activity against Escherichia coli ATCC 25922 = CCM 3954 assessed as inhibition of bacterial growth incubated for 24 hrs in presence of BSA by microdilution assay; format: functional
[2] = system: Staphylococcus epidermidis; assay: Antibacterial activity against Staphylococcus epidermidis CCM 7221 assessed as inhibition of bacterial growth incubated for 24 hrs by microdilution assay; format: functional
Staphylococcus aureus [3] = assay: Antibacterial activity against methicillin resistant Staphylococcus aureus 4591/A assessed as reduction in microbial growth incubated for 24 hrs by microdilution assay; format: functional
Escherichia coli [4] = assay: Antibacterial activity against multidrug-resistant Escherichia coli CE5556 expressing CTX-M-15 assessed as reduction in microbial growth incubated for 24 hrs by microdilution assay; format: functional
Pseudomonas aeruginosa [5] = assay: Antibacterial activity against multidrug-resistant Pseudomonas aeruginosa assessed as reduction in microbial growth incubated for 24 hrs by microdilution assay; format: functional
Staphylococcus aureus [6] = assay: Antibacterial activity against wild type Staphylococcus aureus 4482/A assessed as reduction in microbial growth incubated for 24 hrs by microdilution assay; format: functional
Staphylococcus aureus [7] = assay: Antibacterial activity against wild type Staphylococcus aureus 5079/C assessed as reduction in microbial growth incubated for 24 hrs by microdilution assay; format: functional
Staphylococcus aureus [8] = assay: Antibacterial activity against wild type Staphylococcus aureus 78/CF assessed as reduction in microbial growth incubated for 24 hrs by microdilution assay; format: functional
Staphylococcus aureus [9] = assay: Antibacterial activity against wild type Staphylococcus aureus 77/CF assessed as reduction in microbial growth incubated for 24 hrs by microdilution assay; format: functional
Staphylococcus aureus [10] = assay: Bactericidal activity against Staphylococcus aureus CCM 4223 assessed as reduction in viable cell count measured after 24 hrs by Time kill assay; format: functional, organism-based; conditions: DDE = dose-dependent effect
Pseudomonas aeruginosa [11] = assay: Antibacterial activity against Pseudomonas aeruginosa CCM 3955 persisters assessed as reduction in bacterial cell count at 1 to 10 times MIC incubated for 3 hrs by cell counting method; format: functional, organism-based
Cell membrane = assay: Induction of plasma membrane depolarization in Staphylococcus aureus assessed as formation of fluctuating unstable pores at 2.5 mg/L; format: cell membranes
[12] = Toxicity in human epidermis model assessed as skin irritation incubated for 42 hrs; format: tissue-based
[13] = Toxicity in human cornea epidermis model assessed as eye irritation incubated for 42 hrs; format: tissue-based

Compound: CCCCCCCCOP(=O)(CCN(CCCN)CCCN)OCCCCCCOP(=O)(CCN(CCCN)CCCN)OCCCCCCCC.Cl.Cl.Cl.Cl.Cl.Cl (centres undefined)
- MIC (Escherichia coli [1]): 0.5 µg/mL
- MIC [2]: 0.5 µg/mL
- MIC (Staphylococcus aureus [3]): 1 µg/mL
- MIC (Escherichia coli [4]): 1 µg/mL
- MIC (Pseudomonas aeruginosa [5]): 2 µg/mL
- MIC (Staphylococcus aureus [6]): 0.5 µg/mL
- MIC (Staphylococcus aureus [7]): 0.5 µg/mL
- MIC (Staphylococcus aureus [8]): 1 µg/mL
- MIC (Staphylococcus aureus [9]): 0.5 µg/mL
- Activity (Staphylococcus aureus [10]): Dde
- Activity (Pseudomonas aeruginosa [11]): Active
- Activity (Cell membrane): Active
- Activity [12]: Non-Toxic
- Activity [13]: Non-Toxic
